According to patent publication US20170242014A1, “METHODS FOR TREATING SOLID TUMORS AND THE USE OF BIOMARKERS AS A PREDICTOR OF CLINICAL SENSITIVITY TO IMMUNOMODULATORY THERAPIES” (CELGENE CORPORATON, priority 2014, published 2017):
Entries after “also recorded” stand apart in the source; their conditions may differ. Peptide text beside a SMILES is read from it. * marks the point of attachment. Cbz = O=C(OCc1ccccc1)*

How the values were obtained:
CRBN = CRBN protein level in HCC cells Focus and JHH4 (western blot / proteomic preparation); format: cell-based; details: for level of CRBN (western blot): FIG. 4B; for level of CRBN protein: control plate and proteomic preparation
Description: Both HCC cells, Focus and JHH4 in 3D setting, were cultured continuously for 15 days treated with either DMSO or Compound A, or were first cultured for about 7 days prior to treatment with either DMSO or Compound A for 24 hours or 72 hours. Cells were harvested and proteins were prepared from the cells for proteomics analysis. The growth of the cells on control plates was also analyzed. In particular, cells were plated in media containing either DMSO or Compound A. Cells were cultured for certain time, and then were harvested onto filter plates. After the plates have dried, scintillation fluid was added to the plates and read on a Top-count reader. HCC cells from both Focus and JHH4 cell lines in 2D setting treated with Compound A for 6 hours, 24 hours, and 72 hours, and JHH4 cells in 3D setting treated with Compound A for 15 days were also analyzed by western blot. Cells were harvested and were treated in 200 μl cold cell lysis buffer (1% Triton X-100 from Cell Signaling supplemented with protease inhibitors and phophatase inhibitors from Roche) to generate cell lysate. Proteins from cell lysate were separated by 4-12% Nupage gels (Invitrogen) and transferred to nitrocellulose membranes. Immunoblots were then probed with antibodies recognizing CRBN, ZFP91 (LSBio), P-TBK1, and β-actin (Li-Cor). Signals were detected with a Li-Cor Odyssey Imager. As shown, the level of ZFP91 reduced in response to treatment with Compound A for 6 hours, 24 hours, or 72 hours in both cell lines in 2D setting. […] The level of CRBN increased in response to treatment with Compound A for 6 hours, 24 hours, or 72 hours in both cell lines in 2D setting. […] ZFP91 degradation induced by various doses of Compound A for various time periods was also tested in both Focus and JHH4 cells, as shown in FIG. 4C.

ZFP91 [1] = test: ZFP91 protein level in glioblastoma cell lines U87 and SNB19 (western blot); format: cell-based, human; details: FIG. 7A
Description: The change of ZFP91 level in response to treatment compounds was evaluated in other solid tumor cell lines, e.g., giloblastoma (GBM) cell lines. […] Proteins from cell lysate were separated by electrophoresis gel and transferred to nitrocellulose membranes. Immunoblots were then probed with antibodies recognizing ZFP91 and β-actin. Signals were detected with a Li-Cor Odyssey Imager.

ZFP91 [2] = test: ZFP91 protein level in HCC cells Focus and JHH4 (western blot / proteomic preparation); format: cell-based; details: for level of ZFP91 protein: control plate and proteomic preparation, beta-actin control; for effect on ZFP91 degradation induced by Compound A: 10 μM for 1 hour, then 5 μM Compound A for 6 hours, FIG. 5A
Description: (§1) Both HCC cells, Focus and JHH4 in 3D setting, were cultured continuously for 15 days treated with either DMSO or Compound A, or were first cultured for about 7 days prior to treatment with either DMSO or Compound A for 24 hours or 72 hours. Cells were harvested and proteins were prepared from the cells for proteomics analysis. The growth of the cells on control plates was also analyzed. In particular, cells were plated in media containing either DMSO or Compound A. Cells were cultured for certain time, and then were harvested onto filter plates. After the plates have dried, scintillation fluid was added to the plates and read on a Top-count reader.
Focus cells were cultured for 18 days either continuously for 18 days in the medium containing DMSO, Compound A, or Compound B, or cultured for 7 days prior to treating with DMSO, Compound A, or Compound B for 11 days. Then cells were harvested and were treated in 200 μl cold cell lysis buffer (1% Triton X-100 from Cell Signaling supplemented with protease inhibitors and phophatase inhibitors from Roche) to generate cell lysate. Proteins from cell lysate were separated by 4-12% nupage gels (Invitrogen) and transferred to nitrocellulose membranes. Immunoblots were then probed with antibodies recognizing CRBN, ZFP91 (LSBio) and β-actin (Li-Cor). Signals were detected with a Li-Cor Odyssey Imager. As shown, the level of ZFP91 reduced in response to treatment with Compound A or Compound B.
(§2) HCC cells from both Focus and JHH4 cell lines in 2D setting treated with Compound A for 6 hours, 24 hours, and 72 hours, and JHH4 cells in 3D setting treated with Compound A for 15 days were also analyzed by western blot. Cells were harvested and were treated in 200 μl cold cell lysis buffer (1% Triton X-100 from Cell Signaling supplemented with protease inhibitors and phophatase inhibitors from Roche) to generate cell lysate. Proteins from cell lysate were separated by 4-12% Nupage gels (Invitrogen) and transferred to nitrocellulose membranes. Immunoblots were then probed with antibodies recognizing CRBN, ZFP91 (LSBio), P-TBK1, and β-actin (Li-Cor). Signals were detected with a Li-Cor Odyssey Imager. As shown, the level of ZFP91 reduced in response to treatment with Compound A for 6 hours, 24 hours, or 72 hours in both cell lines in 2D setting. […] The level of CRBN increased in response to treatment with Compound A for 6 hours, 24 hours, or 72 hours in both cell lines in 2D setting. […] ZFP91 degradation induced by various doses of Compound A for various time periods was also tested in both Focus and JHH4 cells, as shown in FIG. 4C.
HCC cells from both Focus and JHH4 cell lines in 2D setting were first treated with 10 μM MG132 or MLN4924 for 1 hour, and then were treated with 5 μM DMSO or 5 μM Compound A for 6 hours. Cells were harvested and were treated in cell lysis buffer to generate cell lysate. Proteins from cell lysate were separated by gel electrophoresis and transferred to nitrocellulose membranes. Immunoblots were then probed with antibodies recognizing CRBN, ZFP91 (LSBio), and β-actin (Li-Cor). The results were shown in FIG. 5A, and as shown, both 10 μM MG132 or MLN4924 inhibited ZFP91 degradation. MG132 activates c-Jun N-terminal kinase (JNK1), which initiates apoptosis. […] MLN4924 is a NAE1 inhibitor that blocks the activity of Cullin Ring Ligases (CRLs), such as CRL4CRBN.

ZFP91 [3] = test: as above; format: cell-based; details: for level of ZFP91 in cells treated with cycloheximide (CHX): 100 ug/ml CHX, FIG. 5B; for effect of compound on ZFP91 degradation after knocking down of CRBN: FIG. 5C
[4] = system: HCC cell lines (excised xenograft tumors of HAK-1AJ and Focus); test: Proteomic screening (TMT) of HCC cell lines after Compound A treatment; format: cell-based
Description: HCC cell lines (excised xenograft tumors of HAK-1AJ and Focus) were treated with either with DMSO, or Compound A for either once (single) or multiple times. Cells were harvested at 24 or 72 hours time points, and proteins were fractionated using a basic pH reverse gradient method. Fractionated samples were labeled using a Tandem Mass Tag (TMT) method. Relative abundance was calculated.

P-TBK1 = P-TBK1 level by western blot in HCC cells; format: cell-based; details: 3D setting; Compound A treatment
Description: as §2

ZFP91 [5] = test: Immunostaining of ZFP91 in U87 xenograft tissue; format: in vivo; details: FIG. 7B right panel
ZFP91 [6] = test: ZFP91 protein level in Hep3B cells (western blot); format: cell-based, human; details: for ZFP91 level (western blot): FIG. 6A upper panel; for effect on reduction of ZFP91 level in response to Compound A or Compound B: FIG. 6A lower panel
Description: The change of ZFP91 level in response to Compound A or Compound B treatments was also evaluated in human hepatoma Hep3B cell lines. Hep3B cells were treated with Compound A or Compound B, and cells were harvested and treated in lysis buffer to generate cell lysate. Proteins from cell lysate were separated by electrophoresis gel and transferred to nitrocellulose membranes. Immunoblots were then probed with antibodies recognizing CRBN, ZFP91, and β-actin. Signals were detected with a Li-Cor Odyssey Imager. The results were shown in the upper panel of FIG. 6A. […] Thus, ZFP91 may be degraded in response treatment compounds regardless of growth response of the cells to the treatment compounds.

U87 tumor = test: U87 xenograft tumor growth; format: in vivo; details: FIG. 7B left panel
JHH4 cells = test: Colony growth on control plates, 3D culture; format: cell-based; details: JHH4, 3D, FIG. 3B
Hep3B cells = test: Growth response of Hep3B cells to treatment compounds; format: cell-based, human; details: FIG. 6B
Focus cells = test: Colony growth on control plates, 3D culture; format: cell-based; details: FIG. 2B
Description: as §1

NF-κB activation = details: read-out: IC50 of inhibition of NF-κB activation; cited from earlier work
[7] = Focus cells, 18 days continuous or 7 days culture then 11 days treatment, FIG. 4A
[8] = proteomic screening vs DMSO, harvested at 24 or 72 hours

Compound: Cc1nc2cccc(N)c2c(=O)n1C1CCC(=O)NC1=O (centres unmarked) [Compound A, 3-(5-amino-2-methyl-4-oxo-4H-quinazolin-3-yl)-piperidine-2,6-dione]
- level of CRBN (western blot) (CRBN; Focus, 2D setting, 6 hours, 24 hours, or 72 hours): increased
- level of CRBN protein (CRBN; Focus, 3D, FIG. 2A): increased
- level of CRBN (western blot) (CRBN; JHH4, 2D setting, 6 hours, 24 hours, or 72 hours): increased
- level of CRBN (western blot) (CRBN; JHH4, 3D setting, 15 days): increased
- level of CRBN protein (CRBN; JHH4, 3D, FIG. 3A): increased
- ZFP91 level (western blot) (ZFP91 [1]; SNB19 cells): down-regulated
- ZFP91 level (western blot) (ZFP91 [1]; U87 cells): down-regulated
- level of ZFP91 (western blot) (ZFP91 [2]; [7]): reduced
- level of ZFP91 (western blot) (ZFP91 [2]; Focus, 2D setting, 6 hours, 24 hours, or 72 hours, FIG. 4B): reduced
- level of ZFP91 protein (ZFP91 [2]; Focus, 3D, FIG. 2A): reduced
- level of ZFP91 (western blot) (ZFP91 [2]; JHH4, 2D setting, 6 hours, 24 hours, or 72 hours, FIG. 4B): reduced
- level of ZFP91 (western blot) (ZFP91 [2]; JHH4, 3D setting, 15 days, FIG. 4B): reduced
- level of ZFP91 protein (ZFP91 [2]; JHH4, 3D, FIG. 3A): reduced
- level of ZFP91 in cells treated with cycloheximide (CHX) (ZFP91 [3]; Focus): decreased
- effect of compound on ZFP91 degradation after knocking down of CRBN (ZFP91 [3]; Focus, CRBN knock-down): reversed
- level of ZFP91 in cells treated with cycloheximide (CHX) (ZFP91 [3]; JHH4): decreased
- effect of compound on ZFP91 degradation after knocking down of CRBN (ZFP91 [3]; JHH4, CRBN knock-down): reversed
- proteins commonly differentially abundant in both Focus and HAK-1AJ cell lines ([4]; 24 hours after treatment, FIG. 1C): WIBG, KAT1, Nestin, PARP4, and MVP
- proteins downregulated in response to Compound A treatment [4, 8]: MVP, PARP4, ZFP91, and ZNF198
- proteins upregulated in response to Compound A treatment [4, 8]: Nestin, KAT1/CCBL1, and WIBG
- P-TBK1 level (western blot) (P-TBK1): upregulated
- ZFP91 in U87 xenograft tissue (immunostaining) (ZFP91 [5]): degraded
- ZFP91 level (western blot) (ZFP91 [6]): down-regulated
- U87 tumor growth (U87 tumor; 3 mg/kg qd): significantly inhibits
- U87 tumor growth (U87 tumor; 30 mg/kg qd): significantly inhibits
- colony number (JHH4 cells): reduced
- total colony area (JHH4 cells): reduced
- sensitivity of Hep3B cells (growth response) (Hep3B cells): not
- colony number (Focus cells): reduced
- total colony area (Focus cells): reduced

Compound: O=C1CCC(N2Cc3c(OCc4ccc(CN5CCOCC5)cc4)cccc3C2=O)C(=O)N1 (centres unmarked) [Compound B, 3-[4-(4-Morpholin-4-ylmethyl-benzyloxy)-1-oxo-1,3-dihydro-isoindol-2-yl]-piperidine-2,6-dione]
- level of ZFP91 (western blot) (ZFP91 [2]; [7]): reduced
- effect of compound on ZFP91 protein level after knocking down of CRBN (ZFP91 [3]; CRBN knock-down, cell line not stated, FIG. 5D): reversed
- ZFP91 level (western blot) (ZFP91 [6]): down-regulated
- sensitivity of Hep3B cells (growth response) (Hep3B cells): sensitive

Compound: CC(C)C[C@@H](C=O)NC(=O)[C@H](CC(C)C)NC(=O)[C@H](CC(C)C)NC(=O)OCc1ccccc1 [MG132, reference compound] (Cbz-Leu-Leu-Leu-aldehyde)
- effect on reduction of ZFP91 level in response to treatment compounds (ZFP91 [1]; SNB19 cells): blocked
- effect on reduction of ZFP91 level in response to treatment compounds (ZFP91 [1]; U87 cells): blocked
- effect on ZFP91 degradation induced by Compound A (ZFP91 [2]; Focus, 2D): block; also recorded: inhibited
- effect on ZFP91 degradation induced by Compound A (ZFP91 [2]; JHH4, 2D): block; also recorded: inhibited
- effect on reduction of ZFP91 level in response to Compound A or Compound B (ZFP91 [6]): blocked
- IC50 (NF-κB activation): 3000 nM

Compound: NS(=O)(=O)OC[C@@H]1C[C@@H](n2ccc3c(N[C@H]4CCc5ccccc54)ncnc32)C[C@@H]1O [MLN4924, reference compound]
- effect on reduction of ZFP91 level in response to treatment compounds (ZFP91 [1]; SNB19 cells): blocked
- effect on reduction of ZFP91 level in response to treatment compounds (ZFP91 [1]; U87 cells): blocked
- effect on ZFP91 degradation induced by Compound A (ZFP91 [2]; Focus, 2D): inhibited
- effect on ZFP91 degradation induced by Compound A (ZFP91 [2]; Focus, 2D, listed as MLN): block
- effect on ZFP91 degradation induced by Compound A (ZFP91 [2]; JHH4, 2D): inhibited
- effect on ZFP91 degradation induced by Compound A (ZFP91 [3]; JHH4, 2D, 10 μM for 1 hour, then 5 μM Compound A for 6 hours, FIG. 5A, listed as MLN): block
- effect on reduction of ZFP91 level in response to Compound A or Compound B (ZFP91 [6]): blocked
